Reference: patent publication US20160022636A1, “PHYSIOLOGICAL LIGANDS FOR GPR139” (JANSSEN PHARMACEUTICA NV, priority 2013, published 2016)
“And” between values parts separate entries of the source, which are not always exact repeats. Equal values may be shown once. Read-outs that look alike come from different tables or passages of the source.

Assays:
mouse GPR139 = biological target: T1, mouse GPR139 (Mus musculus, UniProt Q80UC8); experiment: GTPγS binding dose response, COS7 membranes co-transfected with mouse GPR139 and GO2Q; type: biochemical; conditions: mouse GPR139, FIG. 2 C and D
T1 construct: expressed in transfected cells; host or cells: COS7
T1 sequence (Q80UC8 1-345): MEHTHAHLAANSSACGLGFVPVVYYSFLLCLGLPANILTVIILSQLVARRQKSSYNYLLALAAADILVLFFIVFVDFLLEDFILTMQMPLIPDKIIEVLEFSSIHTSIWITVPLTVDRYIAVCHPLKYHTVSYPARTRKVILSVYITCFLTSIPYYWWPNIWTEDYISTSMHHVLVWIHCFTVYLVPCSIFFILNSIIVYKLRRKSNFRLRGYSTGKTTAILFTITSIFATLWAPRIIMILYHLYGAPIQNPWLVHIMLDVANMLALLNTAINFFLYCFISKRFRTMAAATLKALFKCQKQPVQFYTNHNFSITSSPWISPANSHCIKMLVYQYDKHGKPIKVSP
Excerpt: (§1) FIG. 2: Tryptophan, phenylalanine, and their derivatives activate GPR139. Human (A and B) or mouse (C and D) GPR139 were co-transfected with chimeric G-protein GO2Q into COS7 cells. Cell membranes from transfected cells were used in GTPγS binding studies using various ligands at different concentrations to stimulate GPR139. Membranes from COS7 cells transfected by GO2Q were used as the controls (E and F).

GPR139 [1] = biological target: T2, GPR139 (Homo sapiens, UniProt Q6DWJ6); experiment: GTPγS binding dose response, COS7 membranes co-transfected with human GPR139 and GO2Q; type: biochemical; set-up: expressed in transfected cells; host or cells: COS7; conditions: human GPR139, FIG. 2 A and B
T2 sequence (Q6DWJ6 1-353): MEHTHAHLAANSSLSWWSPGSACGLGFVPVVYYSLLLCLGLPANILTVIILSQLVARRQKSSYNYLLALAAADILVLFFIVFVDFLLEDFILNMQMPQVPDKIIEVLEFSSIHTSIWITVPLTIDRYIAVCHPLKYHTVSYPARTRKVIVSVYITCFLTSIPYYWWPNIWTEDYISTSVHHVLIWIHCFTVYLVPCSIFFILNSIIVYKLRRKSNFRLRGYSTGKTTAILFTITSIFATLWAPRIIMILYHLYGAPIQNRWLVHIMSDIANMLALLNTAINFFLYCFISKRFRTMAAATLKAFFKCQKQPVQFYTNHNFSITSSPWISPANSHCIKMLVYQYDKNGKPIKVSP
Excerpt: as §1

GO2Q alone = experiment: GTPγS binding assay, control membranes from COS7 cells expressing GO2Q alone (Ct-GO2Q); type: biochemical
Excerpt: Human (A and B) or mouse (C and D) GPR139 were co-transfected with chimeric G-protein GO2Q into COS7 cells. Cell membranes from transfected cells were used in GTPγS binding studies using various ligands at different concentrations to stimulate GPR139. Membranes from COS7 cells transfected by GO2Q were used as the controls (E and F).
(§2) In order identify the ligands for GPR139 two improvements in the detection assay were made to allow for the ligands to be detected. First, we chose to use a GTPγS binding assay instead of using live cultured cells. The GTPγS binding assay is a cell free system that uses the cell membrane of the cell(s) of interest rather than the live cell(s). One advantage of this assay is that potential ligands present in the cell culture media are washed away when the cell membrane is prepared. This reduces the basal level of signal and increase the chance of detecting receptor ligands when assessing compounds that activate the receptor. Second, a GO2Q chimeric G-protein was created to be co-expressed with GPR139 in order to increase the signal-to-noise ratio in the GTPγS binding assay. Historically, the Gi, Go coupled GPCRs offer much greater signal-to-noise ratio in GTPγS binding studies. For Gs and Gq coupled GPCRs, although ligand-stimulated specific signals can be detected in a GTPγS binding assay, the signal-to-noise ratios are often very small. To address this a chimeric GO2-Gq chimeric G-protein, GO2Q, with the N-terminus from Go2 protein and the C-terminus from Gq protein.
(§3) To test for compounds that activate GPR139, different amino acids and their derivatives (Table 2) were tested as ligands in the GTPγS binding assay using cell membranes from COS7 cells co-expressing GPR139 and GO2Q. Cell membrane from COS7 cells expressing GO2Q alone or co-expressing other GPCRs were also tested in GTPγS binding assay in parallel as controls. Each compound was tested in triplicate.

GPR139 [2] = biological target: T2, GPR139; experiment: GTPγS binding assay, membranes from COS7 cells co-expressing GPR139 and GO2Q, single concentration screen; type: biochemical; set-up: expressed in transfected cells; host or cells: COS7; conditions: for Activation levels of GPR139 (GTPγS binding signal), GPR139-GO2Q: 1 mM final concentration, single wells of triplicate, COS7 membranes co-expressing GPR139 and GO2Q; for activation of GPR139 in GTPγS binding assay (in words): 1 mM
Procedure: as §2, §3

GPR139 [3] = biological target: T2, GPR139; experiment: calcium mobilization assay (FLIPR), GPR139 transiently expressed in HEK293 cells; type: cell-based; set-up: expressed in transfected cells; host or cells: HEK293; conditions: similar to GTPγS binding studies
Excerpt: For these experiments human GPR139 was transiently expressed in HEK293 cells and calcium mobilization was stimulated using L-Trp, L-Phe or their derivatives.

[4] = 1 mM final concentration, single wells of triplicate, COS7 membranes with GO2Q alone (control panel)

SMILES	Activation levels (GTPγS binding signal), Ct-GO2Q (GO2Q alone; [4])	Activation levels of GPR139 (GTPγS binding signal), GPR139-GO2Q (GPR139 [2])	further results
N[C@H](Cc1c[nH]c2ccccc12)C(=O)O [D-Trp, D-tryptophan]			dose response activation of GPR139 (in words) (mouse GPR139): specifically activate GPR139 in a dose-responsive manner; dose response activation of GPR139 (in words) (GPR139 [1]): specifically activate GPR139 in a dose-responsive manner
N[C@H](Cc1ccccc1)C(=O)O [D-Phe, D-phenylalanine]			dose response activation of GPR139 (in words) (mouse GPR139): specifically activate GPR139 in a dose-responsive manner; dose response activation of GPR139 (in words) (GPR139 [1]): specifically activate GPR139 in a dose-responsive manner
N[C@@H](CS)C(=O)O [Cys]	1928 and 2132 and 2114	2168 and 2458 and 2336	
CNCC(O)c1ccc(O)c(O)c1 (stereo not shown) [Adrenaline]	2240 and 2117 and 2045	2721 and 2624 and 2670	
NCCc1ccc(O)cc1 [Tyramine]	2132 and 2277 and 2369	2883 and 2932 and 2873	
Cn1cc(C[C@H](N)C(=O)O)c2ccccc21 [1-methyl-L-Trp]			dose response activation of GPR139 (in words) (mouse GPR139): specifically activate GPR139 in a dose-responsive manner; dose response activation of GPR139 (in words) (GPR139 [1]): specifically activate GPR139 in a dose-responsive manner; potency in calcium mobilization compared with L-Trp and L-Phe (in words) (GPR139 [3]): higher potencies
N[C@@H](CSSC[C@H](N)C(=O)O)C(=O)O [Cystine]	2242 and 2149 and 2229	2501 and 2652 and 2258	
C[C@@H](O)[C@H](N)C(=O)O [Thr]	2210 and 2213 and 2008	2547 and 2507 and 2558	
NCC(O)c1ccc(O)cc1 (stereo not shown) [Octopamine]	2087 and 2140 and 2142	2554 and 2675 and 2831	
N[C@@H](Cc1c[nH]cn1)C(=O)O [His]	2308 and 2259 and 2197	2640 and 2499	
N[C@@H](CC(=O)O)C(=O)O [Asp]	2177 and 2137 and 2132	2758 and 2922 and 2925	
CC(N)Cc1ccccc1 (stereo not shown) [Amphetamine, amphetamine]	2331 and 2132 and 2001	7242 and 6744 and 7263	dose response activation of GPR139 (in words) (mouse GPR139): specifically activate GPR139 in a dose-responsive manner; activation of GPR139 in GTPγS binding assay (in words) (GPR139 [2]): activated GPR139; dose response activation of GPR139 (in words) (GPR139 [1]): specifically activate GPR139 in a dose-responsive manner
O=C(O)[C@@H]1CCCN1 [Pro]	2256 and 2235 and 2329	2719 and 2657 and 2786	
NCCc1ccccc1 [β-phenylethylamine]			Activation levels (GTPγS binding signal), Ct-GO2Q (GO2Q alone; 1 mM final concentration, single wells of triplicate, COS7 membranes with GO2Q alone (control panel), listed as b-phenylethylamine): 2334 and 2065 and 2024; dose response activation of GPR139 (in words) (mouse GPR139): specifically activate GPR139 in a dose-responsive manner; activation of GPR139 in GTPγS binding assay (in words) (GPR139 [2]): activated GPR139; Activation levels of GPR139 (GTPγS binding signal), GPR139-GO2Q (GPR139 [2]; listed as b-phenylethylamine): 6705 and 7099 and 6634; dose response activation of GPR139 (in words) (GPR139 [1]): specifically activate GPR139 in a dose-responsive manner
NCC(=O)O [Gly]	1936 and 2133 and 2289	2560 and 2505 and 2414	
N[C@@H](CO)C(=O)O [Ser]	1975 and 2036 and 2164	2605 and 2458 and 2545	
Cn1cc(C[C@@H](N)C(=O)O)c2ccccc21 [1-methyl-D-Trp]			dose response activation of GPR139 (in words) (mouse GPR139): specifically activate GPR139 in a dose-responsive manner; dose response activation of GPR139 (in words) (GPR139 [1]): specifically activate GPR139 in a dose-responsive manner; potency in calcium mobilization compared with L-Trp and L-Phe (in words) (GPR139 [3]): higher potencies
NCCCC[C@H](N)C(=O)O [Lys]	2400 and 2138 and 2041	2433 and 2617 and 2589	
NCCc1ccc(O)c(O)c1 [DA]	2250 and 2213 and 2319	2688 and 2825 and 2708	
NCCc1c[nH]cn1 [HA, histamine]	2186 and 2204 and 2199	2737 and 2863 and 2899	
NC(=O)CC[C@H](N)C(=O)O [Gln]	2181 and 2327 and 2336	2583 and 2525 and 2766	
CSCC[C@H](N)C(=O)O [Met]	2173 and 2307 and 2276	2657 and 2829 and 2802	
O=C(O)[C@@H]1C[C@@H](O)CN1 [HO-Pro]	2166 and 2152 and 2189	2825 and 2797 and 3109	
N=C(N)NCCC[C@H](N)C(=O)O [Arg]		2806 and 2783 and 2528	Activation levels (GTPγS binding signal), Ct-GO2Q (GO2Q alone): 2171 and 2131 and 2255
NC(=O)C[C@H](N)C(=O)O [Asn]	2195 and 2142 and 2133	2806 and 2483 and 2547	
CC(C)C[C@H](N)C(=O)O [Leu]	2194 and 2213 and 2167	2621 and 2544 and 2437	
CC[C@H](C)[C@H](N)C(=O)O [Ile]	2266 and 2222 and 2253	2760 and 2542 and 2903	
NCCc1c[nH]c2ccc(O)cc12 [Seretonin]	2356 and 2154 and 2332	2839 and 2852 and 2920	
